The values below come from PMC6462224 (Nature chemical biology, 2018).

The target in the assay is T1, M2R(S110R)_delta_ICL3 (Homo sapiens, UniProt P08172, DEL233-359/S110R).
T1 sequence (P08172 with tags, fused parts or gaps S110R/DEL233-359): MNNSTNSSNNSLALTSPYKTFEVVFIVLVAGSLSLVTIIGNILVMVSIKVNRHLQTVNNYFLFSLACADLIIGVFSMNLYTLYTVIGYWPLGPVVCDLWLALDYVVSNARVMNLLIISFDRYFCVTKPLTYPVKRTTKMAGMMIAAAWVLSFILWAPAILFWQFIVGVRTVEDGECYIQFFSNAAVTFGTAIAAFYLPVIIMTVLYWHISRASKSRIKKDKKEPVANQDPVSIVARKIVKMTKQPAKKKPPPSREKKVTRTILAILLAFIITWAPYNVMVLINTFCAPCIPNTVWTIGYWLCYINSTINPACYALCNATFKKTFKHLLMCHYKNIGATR
As to the kind of experiment: Inhibition of [3H]NMS binding to M2R. The settings on record: S110R vs wild type, Fig. 2e.

Consider `C[N+](C)(C)CC#CCOC1=NOCC1` [Iperoxo], for which the “reduction of affinity in S110R mutant relative to the wild type” value is around 1000 fold.
